According to patent US7452869B2, “NIP3 family of proteins” (University of Manitoba, priority 2000, dated 2008):
Several values for one entry are separate records, joined by “and”; a condition that tells them apart may be missing. Identical values can stand only once. Starred links: 1 amine or outer side, 2 acyl side, 3 side chain; linkers in the order of their positions; H or OH if unused. Positions of bridges follow the written chain, without caps; N, C: chain ends. Non-standard residues stand in square brackets, D forms with d. Residues, ends and D or L forms follow the SMILES beside them. Chains are numbered I, II in the order given. *: point of attachment. Actinocin(9to1) = Cc1c2oc3c(C)ccc(C(=O)[*:1])c3nc-2c(C(=O)[*:2])c(N)c1=O; NMeV = CN[C@H](C(=O)O)C(C)C; Cbz = O=C(OCc1ccccc1)*; Sar = CNCC(=O)O; CH2F = FC*

Columns and labels:
PT pore = test: mitochondrial Dcm (DiOC6), ROS production (HE) and PI staining by flow cytometry in BNIP3-transfected 293T cells; format: cell-based; conditions: 293T cells, 8 hours after transfection
Description: Changes in mitochondrial function were determined by incubating 10 6 293T cells, transiently transfected via the CaP04 method, with either 1 mM JC-1, 40 nM DiOC6, or 2 mM dihydroethidium (HE) (all from Molecular Probes, Inc.) for 30 minutes at 37° C. in Hanks' balanced salt solution (Gibco-BRL). Cells were scored using a FACScalibur flow cytometer (Becton-Dickinson, San Jose, Calif.), and data were analyzed on Celiquest software, version 3.1 (Becton-Dickinson). Controls were performed in the presence or absence of […] mClCCP (Sigma) or an excess of 30% H2 02. For inhibition experiments, cyclosporin A (Sigma) or bongkrekic acid (a gift from J. A. Duine, Delft University, Delft, The Netherlands) was added 2 hours prior to transfection. All cells were harvested 8 hours after transfection and stained with 40 nM DiOC6, 2 mM HE, or 1 mg of propidium iodide (PI) (Sigma) per ml. In all cases, samples were gated to exclude cellular debris.

MCF-7 cells = test: cytochrome c release by indirect immunofluorescence, MCF-7; format: cell-based
Description: (§1) Mitochondria were isolated from CaP04-transfected 293T cells using 70 strokes (tight pestle) in a 1-ml Dounce homogenizer (Wheaton) in […] of CFS buffer as previously described (Thornberry, N. A., et al., 1998). Mitochondria were resuspended in H buffer (Thornberry, N. A., et al., 1998). Aliquots of […] of protein were analyzed on Laemmli SDS-15% PAGE gels and immunoblotted with anticytochrome c monoclonal antibody. Equal loading was ensured by probing the same blot with monoclonal antiactin. Results were visualized with enhanced chemiluminescence. Cytochrome c release was also determined via indirect immunofluorescence of transfected MCF-7 and 293T cells. Briefly, cells grown on coverslips were costained with Cy3-conjugated mouse anti-cytochrome c monoclonal antibody and an appropriate tag (HA for BNIP3 and FLAG for tBID), which was visualized with FITC-conjugated goat anti-rabbit IgG. Cells were also stained with Hoechst dye to determine apoptotic nuclear morphology. No fewer than 200 cells were scored for each sample. Fluorescence was visualized and captured using a Zeiss axiophot microscope equipped with a cooled charge-coupled device camera.

MEFs = test: b-galactosidase cell death assay in wild-type, Apaf-1, caspase 9 or caspase 3 deficient MEFs; format: cell-based, mouse
Description: (§2) Various doses of the peptide caspase inhibitor Ac-zVAD-fmk (Enzyme System Products, Dublin, Calif.) were applied to 1×10^5 293T cells cotransfected, using LipofectAmine reagent (Gibco-BRL), with 0.01 mg of the reporter plasmid pcDNA3bgal plus the indicated expression plasmids to a final amount of 0.75 mg of DNA (see FIG. 2), as adjusted with empty vector. Cells were fixed, stained, and evaluated 27 hours posttransfection as described previously (Miura, M. et al., 1993). Similar strategies were used to evaluate the expression of pcDNA1-p35 as a caspase inhibitor (1.95 mg of DNA total) and to determine the killing efficiency of BNIP3 expressed in MEF cells (1.2 mg of DNA with 0.3 mg of b-galactosidase).
Results are expressed as the mean […] SE from three independent experiments. […] N, N-Dimethyl formamide (DMF) was used to dilute the adriamycin.

ventricular myocytes = test: cell viability of ventricular myocytes, calcein acetoxymethyl ester / ethidium homodimer-1; format: cell-based; conditions: for BNIP3-induced cell death of ventricular myocytes: z-VAD-fmk 25 to 100 μmol/L, dose dependent
Description: Ventricular myocytes were isolated from 1- to 2-day-old Sprague-Dawley rats (University of Manitoba, Winnipeg, Canada) and submitted to primary culture as reported (Kirshenbaum and Schneider, 1995). Myocytes were subjected to hypoxia for 24 hours in an air-tight chamber continually gassed with 95% N2-5% CO2, as previously reported (Moissac et al., 2000; Long et al., 1997; Tanaka et al., 1994). Adult rat hearts (n=3) were excised from adult rats (250 to 300 g) and subjected to global hypoxia for 1 hour on a modified Langendorff perfusion system with buffer continually gassed with 95% N2-5% CO2, as previously reported (Kirshenbaum, 1993). Heart failure was induced in rats by surgical ligation of the left anterior descending coronary artery, as previously reported (Dixon et al., 1992). Non-failing sham control hearts and those with heart failure were excised from animals 8 weeks after myocardial infarction. Hearts (n=3) were dissected to remove the infarcted scar tissue, and the left ventricular free wall was homogenized and analyzed by Western blot for BNIP3 expression. Animals were handled according to guidelines established by the University of Manitoba and Canadian Council on Animal Care.
The cDNAs for BNIP3 full-length (BNIP3) and carboxyl terminal transmembrane domain deletion mutant (BNIP3ΔTM) have been described previously (Vande et al., 2000). Recombinant adenoviruses encoding the full-length BNIP3 or transmembrane deletion mutant are designated AdBNIP3 or AdBNIP3ΔTM, respectively, and generated as reported previously (Kirshenbaum et al., 1993).
Cell viability was determined using the vital dyes 2 μmol/L calcein acetoxymethyl ester (green) to determine the number of living cells and 2 μmol/L ethidium homodimer-1 (red) (Molecular Probes) to identify the number of dead cells (Kirshenbaum and Schneider, 1995). The number of green cells versus red cells was used to determine changes in cell viability (Moissac et al., 2000). Cells were analyzed from at least n=3 independent myocyte isolations counting ≧200 cells for each condition tested. Data are expressed as mean±SE percent reduction from control.

caspase 3-like proteases = test: caspase activation, colorigenic cleavage of Ac-DEVD-pNA by lysates of transfected 293T cells; format: biochemical
Description: Lysates were collected from 293T cells, transiently transfected via the CaP04 method (Ray, R., et al., 1999), at the indicated times. Aliquots of these lysates were run under Laemmli sodium dodecyl sulfate-polyacrylamide gel electrophoresis (SDS-PAGE) conditions and immunoblotted with mouse monoclonal anti-PARP. Results were visualized with an enhanced chemiluminescence system (Amersham Pharmacia Biotech, Amersham, U. K.). Transfected 293T cells were also assayed for caspase cleavage via colorigenic cleavage of the peptide Ac-DEVD-pNA (Biomol, Plymouth Meeting, Pa.), according to the conditions outlined by Quignon et al. (Scaffidi, C., et al., 1998), using 100 mM peptide. Where appropriate, samples were preincubated with 500 nM Ac-DEVD-fmk for 30 minutes at room temperature. Data were acquired on a Multiskan MCC/340 (Titertek) plate reader at 405 nm.

[1] = tested on: primary hippocampal neurons; test: primary hippocampal neurons transfected with BNIP3 plasmids, DNA condensation and survival; format: cell-based, rat
Description: Transfection of cells was performed on day four in culture with LipofectAMINE 2000 […] according to manufacturer's protocol. Cells were transfected with a pcDNA3-BNIP3 plasmid encoding the full length of BNIP3 and a pcDNA3-BNIP3-163 plasmid that encodes a truncated form (the first 163 amino acids) of BNIP3 that lacks the functional transmembrane domain. Cells were used after 9 days in culture for excitotoxicity experiments. Neuronal cell death was assessed using trypan blue exclusion, morphological changes, and Hoescht 33342 staining. Morphological characteristics were examined on a Nikon Eclipse TE200 microscope and fluorescence was examined on a Zeiss Axioskop 2.
(§3) In vitro cell death was estimated using trypan blue exclusion. Cells were incubated in 0.4% trypan blue solution for 30 minutes and then counted on a bright-field microscope. Nonviable cells were distinguished by their dark blue staining. To examine nuclear morphology, nuclear DNA was stained with Hoescht 33342. DNA fragmentation was detected by TUNEL using an in situ cell death detection kit with fluorescein. Statistical analyses were by ANOVA with Tukey's post-test.

293T cells [2] = test: cytochrome c release by indirect immunofluorescence, 293T; format: cell-based
Description: as §1

293T cells [3] = test: DNA fragmentation (TUNEL) in transfected 293T cells; format: cell-based; parameters: dose or concentration left out as unconfirmed
Description: DNA fragmentation was detected using the in situ cell death detection kit with fluorescein (Boehringer Mannheim) as per the manufacturer's recommendations in the presence or absence of […] Ac-zVAD-fmk or Ac-FA-fmk. Images were captured as described earlier. No fewer than 200 nuclei were scored manually for each sample. Annexin V staining was performed exactly as described by the manufacturer (Boehringer Mannheim), and samples were analyzed via flow cytometry.

293T cells [4] = test: b-galactosidase cell death assay in transiently transfected 293T cells; format: cell-based
Description: as §2

[5] = tested on: primary hippocampal neurons; test: excitotoxic cell death of primary hippocampal neurons, trypan blue exclusion; format: cell-based, rat
Description: Primary hippocampal neurons were prepared from 18-day-old embryonic Sprague-Dawley rats as described previously by Haughey, N. J. et al. (2001). Briefly, hippocampal tissue was dissociated by gentle tituration in a calcium-free Hank's balanced salt solution and was centrifuged at 1000×g. Cells were resuspended in Dulbecco's modified Eagle's medium (DMEM)/F12 nutrient mixture containing 10% heat-inactivated fetal bovine serum and 1% antibiotic solution (104 IU of penicillin G/ml, 10 mg streptomycin/ml and 25 μg amphotericin B/ml) in 0.9% NaCl (Sigma, St Louis, Mo., USA). Hippocampal neurons were plated at a density of 2×10^5 cells/ml on 12-mm diameter poly d-lysine-coated glass coverslips. Three hours after plating, the media was replaced with serum-free Neurobasal media containing 1% B-27 supplement (Gibco, Rockville, Md., USA).
To determine the extent to which NMDA-type glutamate receptors were involved in BNIP3 expression and excitotoxic cell death, the inventors used the agonist NMDA (100 μM) in the absence or presence of the NMDA receptor antagonist MK-801 (10 μM). To determine the extent to which caspase activation contributes to BNIP3-mediated cell death, hippocampal cells were incubated in the absence or presence of the broad spectrum cell permeable caspase inhibitors z-VAD-FMK (50 μM) and BOC-D-FMK (50 μM); these inhibitors were applied 30 minutes prior to application of glutamate or NMDA. […]
as §3

[6] = inhibitor, 24 hours posttransfection

BNIP3: full-length BNIP3, expressed from plasmid or adenovirus; mutation None
DiOC6-low and HE-high cells (PT pore): 55%
cytochrome c release (in words) (MCF-7 cells): no significant cytochrome c release
cell death induced by transient transfection (MEFs; wild-type and all mutant MEF lines): 50%
increase in myocyte death (ventricular myocytes; adenovirus encoding full-length BNIP3 versus control virus, P<0.05): 8.3 fold
increase in Ac-DEVD-pNA substrate cleavage after transfection (caspase 3-like proteases; 293T lysates harvested 1 to 36 hours posttransfection, versus untransfected controls): only marginal increases
neurons surviving glutamate toxicity ([1]; glutamate 100 μM at day 9 in culture, 5 days after transfection): 32%
BNIP3-positive neurons showing DNA condensation / DNA damage ([1]; transiently transfected hippocampal neurons): 81% and 85%
cytochrome c release (in words) (293T cells [2]): only very low levels

COC(=O)C[C@H](NC(=O)[C@H](C)NC(=O)[C@@H](NC(=O)OCc1ccccc1)C(C)C)C(=O)CF [Ac-zVAD-fmk] (Cbz-Val-Ala-Asp(OMe)-CH2F)
DNA fragmentation (TUNEL) in BNIP3 transfectants (293T cells [3]; [6]): partially inhibited
DNA fragmentation (TUNEL) in tBID-expressing cells (293T cells [3]; [6]): nearly completely inhibited
BNIP3-induced cell death in presence of caspase inhibitor (293T cells [4]; 293T cells transfected with BNIP3, evaluated 27 hours posttransfection, p35 plasmid up to 1.5 mg): unaffected
suppression of cell death of tBID or caspase 9/Apaf-1 transfectants (293T cells [4]; 293T cells, 27 hours posttransfection, same concentration of inhibitor): greater than 50%
cell death caused by glutamate or NMDA ([5]; z-VAD-FMK 50 μM alone, trypan blue 6 hours after glutamate or NMDA): did not prevent
BNIP3-induced cell death of ventricular myocytes (ventricular myocytes; listed as z-VAD-fmk): prevented
BNIP3-induced cell death of ventricular myocytes (ventricular myocytes; listed as z-VADfmk): suppressed

COc1cccc2c1C(=O)c1c(O)c3c(c(O)c1C2=O)C[C@@](O)(C(=O)CO)C[C@@H]3O[C@H]1C[C@H](N)[C@H](O)[C@H](C)O1 [adriamycin]
adriamycin-induced cell death in mutant MEFs (MEFs; Apaf-1, caspase 9 or caspase 3 deficient MEFs, 3 mg of adriamycin per ml for 24 hours): profound resistance

CN[C@H](CC(=O)O)C(=O)O [NMDA]
neuronal cell death (trypan blue exclusion) ([5]; 6 hours after application, p<0.01): significantly increased

Cc1c2oc3c(C)ccc(C(=O)N[C@@H]4C(=O)N[C@H](C(C)C)C(=O)N5CCC[C@H]5C(=O)N(C)CC(=O)N(C)[C@@H](C(C)C)C(=O)O[C@@H]4C)c3nc-2c(C(=O)N[C@@H]2C(=O)N[C@H](C(C)C)C(=O)N3CCC[C@H]3C(=O)N(C)CC(=O)N(C)[C@@H](C(C)C)C(=O)O[C@@H]2C)c(N)c1=O [actinomycin D] (I: T[dV]P[Sar][NMeV] / II: T[dV]P[Sar][NMeV]; ester I:1-I:C, II:1-II:C; linker I:N-II:N via Actinocin(9to1))
number of trypan blue positive cells caused by glutamate toxicity ([5]; actinomycin D 1 mg/ml added, p<0.01, to untreated control levels): significantly decreased
cell death rates, drug alone ([5]; actinomycin D alone): did not affect

CC(=O)N[C@@H](CC(=O)O)C(=O)N[C@@H](CCC(=O)O)C(=O)N[C@H](C(=O)N[C@@H](CC(=O)O)C(=O)CF)C(C)C [Ac-DEVD-fmk]
proteolytic activity of lysates of BNIP3 or BNIP3DTM transfected cells with inhibitor (caspase 3-like proteases; 500 nM Ac-DEVD-fmk): not inhibited
Ac-DEVD-pNA substrate cleavage in tBID-transfected cells with inhibitor (caspase 3-like proteases; lysates preincubated with 500 nM Ac-DEVD-fmk): blocked

CC(=O)NC(Cc1ccccc1)C(=O)NC(C)C(=O)CF (stereo not shown) [Ac-FA-fmk]
DNA fragmentation (TUNEL) in parallel populations (293T cells [3]; Ac-FA-fmk): No effect
